Reference: ChEMBL document CHEMBL1909570, “Synthesis and antibacterial activity of N4-mono alkyl derivatives of novel glycopeptide LYV07ww01” (2011)
In brackets after ≈: the same amount, converted by molar mass.

How the values were obtained:
Type in all cases: functional
[1] = tested on: Staphylococcus aureus; experiment: Antibacterial activity against Staphylococcus aureus 26003 by CLSI agar microdilution method
[2] = tested on: Streptococcus pneumoniae; experiment: Antibacterial activity against Streptococcus pneumoniae 31002 by CLSI agar microdilution method
[3] = tested on: Staphylococcus; experiment: Antibacterial activity against Staphylococcus albus 26101 by CLSI agar microdilution method
[4] = tested on: Enterococcus faecium; experiment: Antibacterial activity against Enterococcus faecium 32220 by CLSI agar microdilution method
[5] = tested on: Streptococcus; experiment: Antibacterial activity against Streptococcus gamma 32206 by CLSI agar microdilution method
[6] = tested on: Staphylococcus epidermidis; experiment: Antibacterial activity against Staphylococcus epidermidis 26069 by CLSI agar microdilution method

SMILES | MIC [1] [µg/mL] | MIC [2] [µg/mL] | MIC [3] [µg/mL] | MIC [4] [µg/mL] | MIC [5] [µg/mL] | MIC [6] [µg/mL]
CCCCCN[C@@]1(C)C[C@H](O[C@H]2[C@H](Oc3c4cc5cc3Oc3ccc(cc3Cl)[C@@H](O[C@H]3C[C@](C)(N)[C@H](O)[C@H](C)O3)[C@@H]3NC(=O)[C@H](NC(=O)[C@@H]5NC(=O)[C@H](CC(N)=O)NC(=O)[C@H](NC(=O)[C@@H](CC(C)C)NC)[C@H](O)c5ccc(c(Cl)c5)O4)c4ccc(O)c(c4)-c4c(O)cc(O)cc4[C@H](C(=O)O)NC3=O)O[C@H](CO)[C@@H](O)[C@@H]2O)O[C@@H](C)[C@H]1O | 1.56 (≈ 0.938 µM) | 0.39 (≈ 0.235 µM) | 3.13 (≈ 1.88 µM) | > 25 | 0.78 (≈ 0.469 µM) | > 25
CN[C@H](CC(C)C)C(=O)N[C@H]1C(=O)N[C@@H](CC(N)=O)C(=O)N[C@H]2C(=O)N[C@H]3C(=O)N[C@H](C(=O)N[C@@H](C(=O)O)c4cc(O)cc(O)c4-c4cc3ccc4O)[C@H](O[C@H]3C[C@](C)(N)[C@H](O)[C@H](C)O3)c3ccc(c(Cl)c3)Oc3cc2cc(c3O[C@@H]2O[C@H](CO)[C@@H](O)[C@H](O)[C@H]2O[C@H]2C[C@](C)(NCc3cc(F)c(F)cc3F)[C@H](O)[C@H](C)O2)Oc2ccc(cc2Cl)[C@H]1O | 1.56 (≈ 0.898 µM) | 1.56 (≈ 0.898 µM) | 3.13 (≈ 1.8 µM) | 1.56 (≈ 0.898 µM) | 12.5 (≈ 7.2 µM) | 12.5 (≈ 7.2 µM)
CN[C@H](CC(C)C)C(=O)N[C@H]1C(=O)N[C@@H](CC(N)=O)C(=O)N[C@H]2C(=O)N[C@H]3C(=O)N[C@H](C(=O)N[C@@H](C(=O)O)c4cc(O)cc(O)c4-c4cc3ccc4O)[C@H](O[C@H]3C[C@](C)(N)[C@H](O)[C@H](C)O3)c3ccc(c(Cl)c3)Oc3cc2cc(c3O[C@@H]2O[C@H](CO)[C@@H](O)[C@H](O)[C@H]2O[C@H]2C[C@](C)(NCc3ccc(Sc4ccccc4)cc3)[C@H](O)[C@H](C)O2)Oc2ccc(cc2Cl)[C@H]1O | 3.13 (≈ 1.75 µM) | 3.13 (≈ 1.75 µM) | 3.13 (≈ 1.75 µM) | 3.13 (≈ 1.75 µM) | 3.13 (≈ 1.75 µM) | > 25
CN[C@H](CC(C)C)C(=O)N[C@H]1C(=O)N[C@@H](CC(N)=O)C(=O)N[C@H]2C(=O)N[C@H]3C(=O)N[C@H](C(=O)N[C@@H](C(=O)O)c4cc(O)cc(O)c4-c4cc3ccc4O)[C@H](O[C@H]3C[C@](C)(N)[C@H](O)[C@H](C)O3)c3ccc(c(Cl)c3)Oc3cc2cc(c3O[C@@H]2O[C@H](CO)[C@@H](O)[C@H](O)[C@H]2O[C@H]2C[C@](C)(NCc3ccc(Oc4cccc(OC)c4)cc3)[C@H](O)[C@H](C)O2)Oc2ccc(cc2Cl)[C@H]1O | 3.13 (≈ 1.73 µM) | 3.13 (≈ 1.73 µM) | 3.13 (≈ 1.73 µM) | 3.13 (≈ 1.73 µM) | 0.78 (≈ 0.432 µM) | > 25
CN[C@H](CC(C)C)C(=O)N[C@H]1C(=O)N[C@@H](CC(N)=O)C(=O)N[C@H]2C(=O)N[C@H]3C(=O)N[C@H](C(=O)N[C@@H](C(=O)O)c4cc(O)cc(O)c4-c4cc3ccc4O)[C@H](O[C@H]3C[C@](C)(N)[C@H](O)[C@H](C)O3)c3ccc(c(Cl)c3)Oc3cc2cc(c3O[C@@H]2O[C@H](CO)[C@@H](O)[C@H](O)[C@H]2O[C@H]2C[C@](C)(NCc3ccc(Cl)c(Cl)c3)[C@H](O)[C@H](C)O2)Oc2ccc(cc2Cl)[C@H]1O | 3.13 (≈ 1.79 µM) | 0.78 (≈ 0.445 µM) | 3.13 (≈ 1.79 µM) | 6.25 (≈ 3.57 µM) | 0.78 (≈ 0.445 µM) | > 25
CN[C@H](CC(C)C)C(=O)N[C@H]1C(=O)N[C@@H](CC(N)=O)C(=O)N[C@H]2C(=O)N[C@H]3C(=O)N[C@H](C(=O)N[C@@H](C(=O)O)c4cc(O)cc(O)c4-c4cc3ccc4O)[C@H](O[C@H]3C[C@](C)(N)[C@H](O)[C@H](C)O3)c3ccc(c(Cl)c3)Oc3cc2cc(c3O[C@@H]2O[C@H](CO)[C@@H](O)[C@H](O)[C@H]2O[C@H]2C[C@](C)(NCc3ccc(Cl)cc3Cl)[C@H](O)[C@H](C)O2)Oc2ccc(cc2Cl)[C@H]1O | 3.13 (≈ 1.79 µM) | 3.13 (≈ 1.79 µM) | 3.13 (≈ 1.79 µM) | 1.56 (≈ 0.891 µM) | 1.56 (≈ 0.891 µM) | 25 (≈ 14.3 µM)
CN[C@H](CC(C)C)C(=O)N[C@H]1C(=O)N[C@@H](CC(N)=O)C(=O)N[C@H]2C(=O)N[C@H]3C(=O)N[C@H](C(=O)N[C@@H](C(=O)O)c4cc(O)cc(O)c4-c4cc3ccc4O)[C@H](O[C@H]3C[C@](C)(N)[C@H](O)[C@H](C)O3)c3ccc(c(Cl)c3)Oc3cc2cc(c3O[C@@H]2O[C@H](CO)[C@@H](O)[C@H](O)[C@H]2O[C@H]2C[C@](C)(NCc3cccs3)[C@H](O)[C@H](C)O2)Oc2ccc(cc2Cl)[C@H]1O | 25 (≈ 14.8 µM) | 6.25 (≈ 3.7 µM) | > 25 | 12.5 (≈ 7.4 µM) | 25 (≈ 14.8 µM) | > 25
CN[C@H](CC(C)C)C(=O)N[C@H]1C(=O)N[C@@H](CC(N)=O)C(=O)N[C@H]2C(=O)N[C@H]3C(=O)N[C@H](C(=O)N[C@@H](C(=O)O)c4cc(O)cc(O)c4-c4cc3ccc4O)[C@H](O[C@H]3C[C@](C)(N)[C@H](O)[C@H](C)O3)c3ccc(c(Cl)c3)Oc3cc2cc(c3O[C@@H]2O[C@H](CO)[C@@H](O)[C@H](O)[C@H]2O[C@H]2C[C@](C)(NCc3cccc4ccccc34)[C@H](O)[C@H](C)O2)Oc2ccc(cc2Cl)[C@H]1O | 1.56 (≈ 0.9 µM) | 0.78 (≈ 0.45 µM) | 1.56 (≈ 0.9 µM) | 1.56 (≈ 0.9 µM) | 6.25 (≈ 3.61 µM) | > 25
CN[C@H](CC(C)C)C(=O)N[C@H]1C(=O)N[C@@H](CC(N)=O)C(=O)N[C@H]2C(=O)N[C@H]3C(=O)N[C@H](C(=O)N[C@@H](C(=O)O)c4cc(O)cc(O)c4-c4cc3ccc4O)[C@H](O[C@H]3C[C@](C)(N)[C@H](O)[C@H](C)O3)c3ccc(c(Cl)c3)Oc3cc2cc(c3O[C@@H]2O[C@H](CO)[C@@H](O)[C@H](O)[C@H]2O[C@H]2C[C@](C)(NC/C=C/c3ccccc3)[C@H](O)[C@H](C)O2)Oc2ccc(cc2Cl)[C@H]1O | 3.13 (≈ 1.83 µM) | 1.56 (≈ 0.913 µM) | 3.13 (≈ 1.83 µM) | 3.13 (≈ 1.83 µM) | 1.56 (≈ 0.913 µM) | > 25

More lines, now with the values ahead:

MIC [1] [µg/mL] | MIC [2] [µg/mL] | MIC [3] [µg/mL] | MIC [4] [µg/mL] | MIC [5] [µg/mL] | MIC [6] [µg/mL] | SMILES
1.56 (≈ 0.93 µM) | 0.78 (≈ 0.465 µM) | 3.13 (≈ 1.87 µM) | > 25 | 1.56 (≈ 0.93 µM) | > 25 | CCCCCCN[C@@]1(C)C[C@H](O[C@H]2[C@H](Oc3c4cc5cc3Oc3ccc(cc3Cl)[C@@H](O[C@H]3C[C@](C)(N)[C@H](O)[C@H](C)O3)[C@@H]3NC(=O)[C@H](NC(=O)[C@@H]5NC(=O)[C@H](CC(N)=O)NC(=O)[C@H](NC(=O)[C@@H](CC(C)C)NC)[C@H](O)c5ccc(c(Cl)c5)O4)c4ccc(O)c(c4)-c4c(O)cc(O)cc4[C@H](C(=O)O)NC3=O)O[C@H](CO)[C@@H](O)[C@@H]2O)O[C@@H](C)[C@H]1O
12.5 (≈ 6.9 µM) | 6.25 (≈ 3.45 µM) | 12.5 (≈ 6.9 µM) | 12.5 (≈ 6.9 µM) | 6.25 (≈ 3.45 µM) | > 25 | CCCCCCCCOc1ccc(CN[C@@]2(C)C[C@H](O[C@H]3[C@H](Oc4c5cc6cc4Oc4ccc(cc4Cl)[C@@H](O[C@H]4C[C@](C)(N)[C@H](O)[C@H](C)O4)[C@@H]4NC(=O)[C@H](NC(=O)[C@@H]6NC(=O)[C@H](CC(N)=O)NC(=O)[C@H](NC(=O)[C@@H](CC(C)C)NC)[C@H](O)c6ccc(c(Cl)c6)O5)c5ccc(O)c(c5)-c5c(O)cc(O)cc5[C@H](C(=O)O)NC4=O)O[C@H](CO)[C@@H](O)[C@@H]3O)O[C@@H](C)[C@H]2O)cc1
6.25 (≈ 3.49 µM) | 3.13 (≈ 1.75 µM) | 3.13 (≈ 1.75 µM) | 6.25 (≈ 3.49 µM) | 3.13 (≈ 1.75 µM) | 6.25 (≈ 3.49 µM) | CN[C@H](CC(C)C)C(=O)N[C@H]1C(=O)N[C@@H](CC(N)=O)C(=O)N[C@H]2C(=O)N[C@H]3C(=O)N[C@H](C(=O)N[C@@H](C(=O)O)c4cc(O)cc(O)c4-c4cc3ccc4O)[C@H](O[C@H]3C[C@](C)(N)[C@H](O)[C@H](C)O3)c3ccc(c(Cl)c3)Oc3cc2cc(c3O[C@@H]2O[C@H](CO)[C@@H](O)[C@H](O)[C@H]2O[C@H]2C[C@](C)(NCc3ccc(-c4ccc(Cl)cc4)cc3)[C@H](O)[C@H](C)O2)Oc2ccc(cc2Cl)[C@H]1O
3.13 (≈ 1.78 µM) | 1.56 (≈ 0.887 µM) | 1.56 (≈ 0.887 µM) | 1.56 (≈ 0.887 µM) | 0.78 (≈ 0.444 µM) | 6.25 (≈ 3.55 µM) | CN[C@H](CC(C)C)C(=O)N[C@H]1C(=O)N[C@@H](CC(N)=O)C(=O)N[C@H]2C(=O)N[C@H]3C(=O)N[C@H](C(=O)N[C@@H](C(=O)O)c4cc(O)cc(O)c4-c4cc3ccc4O)[C@H](O[C@H]3C[C@](C)(N)[C@H](O)[C@H](C)O3)c3ccc(c(Cl)c3)Oc3cc2cc(c3O[C@@H]2O[C@H](CO)[C@@H](O)[C@H](O)[C@H]2O[C@H]2C[C@](C)(NCc3ccc(-c4ccccc4)cc3)[C@H](O)[C@H](C)O2)Oc2ccc(cc2Cl)[C@H]1O
3.13 (≈ 1.82 µM) | 1.56 (≈ 0.908 µM) | 6.25 (≈ 3.64 µM) | > 25 | 1.56 (≈ 0.908 µM) | > 25 | CCCCCCCCCN[C@@]1(C)C[C@H](O[C@H]2[C@H](Oc3c4cc5cc3Oc3ccc(cc3Cl)[C@@H](O[C@H]3C[C@](C)(N)[C@H](O)[C@H](C)O3)[C@@H]3NC(=O)[C@H](NC(=O)[C@@H]5NC(=O)[C@H](CC(N)=O)NC(=O)[C@H](NC(=O)[C@@H](CC(C)C)NC)[C@H](O)c5ccc(c(Cl)c5)O4)c4ccc(O)c(c4)-c4c(O)cc(O)cc4[C@H](C(=O)O)NC3=O)O[C@H](CO)[C@@H](O)[C@@H]2O)O[C@@H](C)[C@H]1O
3.13 (≈ 1.84 µM) | 0.39 (≈ 0.229 µM) | 3.13 (≈ 1.84 µM) | 1.56 (≈ 0.915 µM) | 1.56 (≈ 0.915 µM) | > 25 | CCCCCCCCN[C@@]1(C)C[C@H](O[C@H]2[C@H](Oc3c4cc5cc3Oc3ccc(cc3Cl)[C@@H](O[C@H]3C[C@](C)(N)[C@H](O)[C@H](C)O3)[C@@H]3NC(=O)[C@H](NC(=O)[C@@H]5NC(=O)[C@H](CC(N)=O)NC(=O)[C@H](NC(=O)[C@@H](CC(C)C)NC)[C@H](O)c5ccc(c(Cl)c5)O4)c4ccc(O)c(c4)-c4c(O)cc(O)cc4[C@H](C(=O)O)NC3=O)O[C@H](CO)[C@@H](O)[C@@H]2O)O[C@@H](C)[C@H]1O
